From patent publication US12509421B2, “Preparation and application of deuterated 4-phenyl-4-piperidinols” (priority 2022, dated 2025)
Counter-ions that a name gives are not always drawn. Like-named read-outs stand apart in the source and are kept apart here.

Columns and labels:
[1] = biological target: hERG potassium channel (Homo sapiens, UniProt Q12809); assay: hERG potassium channel whole-cell patch clamp (HEK293); type: cell-based; parameters: expressed in transfected cells; host or cells: HEK293 cell line; settings: for IC50: HEK293 cells stably expressing hERG, whole-cell patch clamp, room temperature, read-out: Half-inhibition concentration of compounds to be tested on hERG (IC50)
hERG potassium channel, sequence (Q12809 whole entry, the tested form may be a part): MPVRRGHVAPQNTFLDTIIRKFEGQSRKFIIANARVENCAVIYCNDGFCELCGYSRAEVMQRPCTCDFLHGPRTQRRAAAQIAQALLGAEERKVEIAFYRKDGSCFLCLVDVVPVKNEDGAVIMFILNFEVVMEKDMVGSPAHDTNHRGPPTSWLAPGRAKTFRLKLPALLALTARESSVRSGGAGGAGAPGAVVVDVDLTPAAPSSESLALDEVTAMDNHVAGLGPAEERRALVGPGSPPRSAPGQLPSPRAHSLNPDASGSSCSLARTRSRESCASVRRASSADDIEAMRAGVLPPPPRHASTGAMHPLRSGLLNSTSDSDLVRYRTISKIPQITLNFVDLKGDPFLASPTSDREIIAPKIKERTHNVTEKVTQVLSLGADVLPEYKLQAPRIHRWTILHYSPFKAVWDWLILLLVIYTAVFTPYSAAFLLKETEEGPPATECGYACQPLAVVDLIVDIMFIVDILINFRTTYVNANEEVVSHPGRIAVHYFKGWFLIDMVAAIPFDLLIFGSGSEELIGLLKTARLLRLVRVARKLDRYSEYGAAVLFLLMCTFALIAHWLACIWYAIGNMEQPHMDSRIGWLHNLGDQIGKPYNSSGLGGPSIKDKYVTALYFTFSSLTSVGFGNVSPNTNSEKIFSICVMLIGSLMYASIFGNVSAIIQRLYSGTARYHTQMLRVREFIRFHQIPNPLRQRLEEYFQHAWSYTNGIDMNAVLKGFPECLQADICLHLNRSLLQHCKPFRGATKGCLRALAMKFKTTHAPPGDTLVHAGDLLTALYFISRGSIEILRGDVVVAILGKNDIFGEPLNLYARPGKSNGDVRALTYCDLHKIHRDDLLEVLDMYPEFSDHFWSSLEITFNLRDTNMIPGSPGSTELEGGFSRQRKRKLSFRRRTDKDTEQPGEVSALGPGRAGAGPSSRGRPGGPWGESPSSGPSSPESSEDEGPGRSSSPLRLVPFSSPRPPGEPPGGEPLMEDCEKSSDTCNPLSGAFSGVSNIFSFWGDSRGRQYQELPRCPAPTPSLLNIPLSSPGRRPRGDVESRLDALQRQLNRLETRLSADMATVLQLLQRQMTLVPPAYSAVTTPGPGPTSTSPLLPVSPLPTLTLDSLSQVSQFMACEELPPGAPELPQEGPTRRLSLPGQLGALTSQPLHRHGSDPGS
How it was run: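 Whole-cell patch clamp in HEK293 cells at room temperature: tail current elicited by −80 to 30 mV for 2.5 s, then −50 mV for 4 s, every 10 s. Ascending concentrations were gravity-perfused for 5 min each, with each cell's compound-free current as control. IC50 came from nonlinear fit of inhibition.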

[2] = system: Female Kunming mice; settings: as disclosed in patent CN201911076305.X; cited from earlier work

Structure (SMILES)	hERG inhibition grade [1]	IC50 [1] [µM]	hERG inhibition grade ([1]; listed as Example 20 of patent CN201911076305.X, hydrochloride)	hERG inhibition grade ([1]; listed as example 20 of the prior art CN201911076305.X, hydrochloride)	ED50 in mouse hot plate experiments [2] [mg/kg]
[2H]C([2H])([2H])Oc1cccc([C@]2(O)CCN(C(=O)Cc3cc(F)c(F)cc3F)C[C@H]2CN(C([2H])([2H])[2H])C([2H])([2H])[2H])c1 [II-11hydrochloride]	μM((Weak inhibition)	20.2			
[2H]C([2H])([2H])Oc1cccc([C@]2(O)CCN(S(=O)(=O)Cc3ccccc3)C[C@H]2CN(C([2H])([2H])[2H])C([2H])([2H])[2H])c1 [II-5hydrochloride]	μM((Weak inhibition)	23.9			
[2H]C([2H])([2H])N(C[C@@H]1CN(C(=O)Cc2cc(F)c(F)cc2F)CC[C@@]1(O)c1cccc(OC)c1)C([2H])([2H])[2H] [II-9hydrochloride]	μM((Weak inhibition)	20.5			
COc1cccc([C@]2(O)CCN(S(=O)(=O)Cc3ccccc3)C[C@H]2CN(C)C)c1.Cl [Example 20 of CN201911076305.X, reference compound]			moderate inhibitory effects on hERG	μM(Moderate intensity inhibition)	0.49
[2H]C([2H])([2H])N(C[C@@H]1CN(S(=O)(=O)Cc2ccccc2)CC[C@@]1(O)c1cccc(OC)c1)C([2H])([2H])[2H] [II-3hydrochloride]	μM((Weak inhibition)	14.7			
